≈ marks a conversion by molar mass, not a printed value.

Data on one molecule can be found in patent US4952578A, “Cephem compound and a process for preparation thereof” (Fujisawa Pharmaceutical Co., Ltd., priority 1987, dated 1990).

The assay relates to P. aeruginosa 26. As to the kind of experiment: In vitro antibacterial activity (MIC) by two-fold agar-plate dilution method. Particulars: Pseudomonas aeruginosa, HI-agar, 37° C., 20 hours, read-out: MIC (minimal inhibitory concentration). The format is cell-based. As to the method: Now in order to show the utility of the object compound [I], the test data on MIC (minimal inhibitory concentration) of representative compound [I] of this invention is shown in the following.
In vitro antibacterial activity was determined by the two-fold agar-plate dilution method as described below.
One loopful of an overnight culture of each test strain in Trypticase-soy broth (10^8 viable cells per ml) was streaked on heart infusion agar (HI-agar) containing graded concentrations of representative test compound, and the minimal inhibitory concentration (MIC) was expressed in terms of μg/ml after incubation at 37° C. for 20 hours.

With `CO/N=C(\C(=O)N[C@@H]1C(=O)N2C(C(=O)[O-])=C(C[n+]3ccc(N)n3CCO)CS[C@H]12)c1csc(N)n1` [Test Compound (1), 7β-[2-(2-Aminothiazol-4-yl)-2-methoxyiminoacetamido]-3-[3-amino-2-(2-hydroxyethyl)-1-pyrazolio]methyl-3-cephem-4-carboxylate (syn isomer)], the MIC was 0.39 µg/mL (≈ 0.746 µM).
